Data reported in patent US6784137B2, “6-aryl-4-aminopicolinates and their use as herbicides” (Dow AgroSciences LLC, priority 2001, dated 2004).

tested on: Barnyardgrass (Echinochloa crus-galli); assay: Postemergence herbicidal activity, greenhouse spray; assay type: in vivo; settings: Echinochloa crus-galli, post-emergence, 336 h, Table 1; rate 250 ppm; visual score after 2 weeks; read-out: Post-emergent % control ECHCG
Procedure, shortened: (§1)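 Plants grown 7-21 days in a greenhouse (~15 hr photoperiod, about 23-29° C day/22-28° C night) and treated at the first or second true leaf stage. Compounds in acetone:DMSO 97:3 were diluted into an aqueous acetone/isopropyl alcohol/crop oil/Triton X-155 carrier and sprayed to thorough coverage. Controls received carrier alone.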

Row | Structure (SMILES) | pest or weed control at 250 ppm [%]
1 | COC(=O)c1nc(-c2cccc(Cl)c2)cc(N)c1Cl [Compound 27, Methyl 4-amino-3-chloro-6-(3-chlorophenyl)pyridine-2-carboxylate] | 70
2 | COC(=O)c1nc(-c2ccc(OC)cc2)cc(N)c1Cl [Compound 17, Methyl 4-amino-3-chloro-6-(4-methoxyphenyl)pyridine-2-carboxylate] | 70
3 | Nc1c(F)c(-c2ccc3c(c2)CCO3)nc(C(=O)O)c1Cl [Compound 197, 4-Amino-3-chloro-5-fluoro-6-(2,3-dihydro-5-benzofuranyl)pyridine-2-carboxylic acid] | 90
4 | COC(=O)c1nc(-c2ccc(Cl)cc2)cc(N)c1Cl [Compound 19, Methyl 4-amino-3-chloro-6-(4-chlorophenyl)pyridine-2-carboxylate] | 80
5 | COC(=O)c1nc(-c2ccc3c(c2)OCO3)c(F)c(N)c1Cl [Compound 84, Methyl 4-amino-3-chloro-5-fluoro-6-(3,4-methylenedioxyphenyl)pyridine-2-carboxylate] | 98

same assay, conditions: Echinochloa crus-galli, post-emergence, 336 h, Table 2; rate 125 ppm; visual score after 2 weeks; read-out: Post-emergent % control ECHCG

Row | Structure (SMILES) | pest or weed control at 125 ppm [%]
6 | Nc1c(F)c(-c2ccc3c(c2)CCO3)nc(C(=O)O)c1Cl [Compound 197, 4-Amino-3-chloro-5-fluoro-6-(2,3-dihydro-5-benzofuranyl)pyridine-2-carboxylic acid] | 85
7 | COC(=O)c1nc(-c2ccc3c(c2)OCO3)c(F)c(N)c1Cl [Compound 84, Methyl 4-amino-3-chloro-5-fluoro-6-(3,4-methylenedioxyphenyl)pyridine-2-carboxylate] | 98

tested on: Yellow nutsedge (Cyperus esculentus); assay: as above; assay type: in vivo; settings: Cyperus, post-emergence, 336 h, Table 1; rate 250 ppm; visual score after 2 weeks; read-out: Post-emergent % control CYPES
Procedure, shortened: as §1

Row | Structure (SMILES) | pest or weed control at 250 ppm [%]
8 | COC(=O)c1nc(-c2cccc(Cl)c2)cc(N)c1Cl [Compound 27, Methyl 4-amino-3-chloro-6-(3-chlorophenyl)pyridine-2-carboxylate] | 60
9 | COC(=O)c1nc(-c2ccc(OC)cc2)cc(N)c1Cl [Compound 17, Methyl 4-amino-3-chloro-6-(4-methoxyphenyl)pyridine-2-carboxylate] | 70
10 | Nc1c(F)c(-c2ccc3c(c2)CCO3)nc(C(=O)O)c1Cl [Compound 197, 4-Amino-3-chloro-5-fluoro-6-(2,3-dihydro-5-benzofuranyl)pyridine-2-carboxylic acid] | 95
11 | COC(=O)c1nc(-c2ccc(Cl)cc2)cc(N)c1Cl [Compound 19, Methyl 4-amino-3-chloro-6-(4-chlorophenyl)pyridine-2-carboxylate] | 90
12 | COC(=O)c1nc(-c2ccc3c(c2)OCO3)c(F)c(N)c1Cl [Compound 84, Methyl 4-amino-3-chloro-5-fluoro-6-(3,4-methylenedioxyphenyl)pyridine-2-carboxylate] | 100

same assay, conditions: Cyperus, post-emergence, 336 h, Table 2; rate 125 ppm; visual score after 2 weeks; read-out: Post-emergent % control CYPES

Row | Structure (SMILES) | pest or weed control at 125 ppm [%]
13 | Nc1c(F)c(-c2ccc3c(c2)CCO3)nc(C(=O)O)c1Cl [Compound 197, 4-Amino-3-chloro-5-fluoro-6-(2,3-dihydro-5-benzofuranyl)pyridine-2-carboxylic acid] | 85
14 | COC(=O)c1nc(-c2ccc3c(c2)OCO3)c(F)c(N)c1Cl [Compound 84, Methyl 4-amino-3-chloro-5-fluoro-6-(3,4-methylenedioxyphenyl)pyridine-2-carboxylate] | 90

tested on: Cocklebur (Xanthium strumarium); assay: as above; assay type: in vivo; settings: Xanthium strumarium, post-emergence, 336 h; Table 1; rate 250 ppm; visual score after 2 weeks; read-out: Post-emergent % control XANST
Procedure, shortened: as §1

Row | Structure (SMILES) | pest or weed control at 250 ppm [%]
15 | COC(=O)c1nc(-c2cccc(Cl)c2)cc(N)c1Cl [Compound 27, Methyl 4-amino-3-chloro-6-(3-chlorophenyl)pyridine-2-carboxylate] | 95
16 | COC(=O)c1nc(-c2ccc(OC)cc2)cc(N)c1Cl [Compound 17, Methyl 4-amino-3-chloro-6-(4-methoxyphenyl)pyridine-2-carboxylate] | 100
17 | Nc1c(F)c(-c2ccc3c(c2)CCO3)nc(C(=O)O)c1Cl [Compound 197, 4-Amino-3-chloro-5-fluoro-6-(2,3-dihydro-5-benzofuranyl)pyridine-2-carboxylic acid] | 100
18 | COC(=O)c1nc(-c2ccc(Cl)cc2)cc(N)c1Cl [Compound 19, Methyl 4-amino-3-chloro-6-(4-chlorophenyl)pyridine-2-carboxylate] | 100
19 | COC(=O)c1nc(-c2ccc3c(c2)OCO3)c(F)c(N)c1Cl [Compound 84, Methyl 4-amino-3-chloro-5-fluoro-6-(3,4-methylenedioxyphenyl)pyridine-2-carboxylate] | 100

same assay, conditions: Xanthium strumarium, post-emergence, 336 h; Table 2; rate 125 ppm; visual score after 2 weeks; read-out: Post-emergent % control XANST

Row | Structure (SMILES) | pest or weed control at 125 ppm [%]
20 | Nc1c(F)c(-c2ccc3c(c2)CCO3)nc(C(=O)O)c1Cl [Compound 197, 4-Amino-3-chloro-5-fluoro-6-(2,3-dihydro-5-benzofuranyl)pyridine-2-carboxylic acid] | 100
21 | COC(=O)c1nc(-c2ccc3c(c2)OCO3)c(F)c(N)c1Cl [Compound 84, Methyl 4-amino-3-chloro-5-fluoro-6-(3,4-methylenedioxyphenyl)pyridine-2-carboxylate] | 100

tested on: Lambsquarter (Chenopodium album); assay: as above; assay type: in vivo; settings: Chenopodium album, post-emergence, 336 h; Table 1; rate 250 ppm; visual score after 2 weeks; read-out: Post-emergent % control CHEAL
Procedure, shortened: as §1

Row | Structure (SMILES) | pest or weed control at 250 ppm [%]
22 | COC(=O)c1nc(-c2cccc(Cl)c2)cc(N)c1Cl [Compound 27, Methyl 4-amino-3-chloro-6-(3-chlorophenyl)pyridine-2-carboxylate] | 95
23 | COC(=O)c1nc(-c2ccc(OC)cc2)cc(N)c1Cl [Compound 17, Methyl 4-amino-3-chloro-6-(4-methoxyphenyl)pyridine-2-carboxylate] | 100
24 | Nc1c(F)c(-c2ccc3c(c2)CCO3)nc(C(=O)O)c1Cl [Compound 197, 4-Amino-3-chloro-5-fluoro-6-(2,3-dihydro-5-benzofuranyl)pyridine-2-carboxylic acid] | 100
25 | COC(=O)c1nc(-c2ccc(Cl)cc2)cc(N)c1Cl [Compound 19, Methyl 4-amino-3-chloro-6-(4-chlorophenyl)pyridine-2-carboxylate] | 95
26 | COC(=O)c1nc(-c2ccc3c(c2)OCO3)c(F)c(N)c1Cl [Compound 84, Methyl 4-amino-3-chloro-5-fluoro-6-(3,4-methylenedioxyphenyl)pyridine-2-carboxylate] | 100

same assay, conditions: Chenopodium album, post-emergence, 336 h; Table 2; rate 125 ppm; visual score after 2 weeks; read-out: Post-emergent % control CHEAL

Row | Structure (SMILES) | pest or weed control at 125 ppm [%]
27 | Nc1c(F)c(-c2ccc3c(c2)CCO3)nc(C(=O)O)c1Cl [Compound 197, 4-Amino-3-chloro-5-fluoro-6-(2,3-dihydro-5-benzofuranyl)pyridine-2-carboxylic acid] | 100
28 | COC(=O)c1nc(-c2ccc3c(c2)OCO3)c(F)c(N)c1Cl [Compound 84, Methyl 4-amino-3-chloro-5-fluoro-6-(3,4-methylenedioxyphenyl)pyridine-2-carboxylate] | 100

tested on: Pigweed (redroot) (Amaranthus retroflexus); assay: Preemergence herbicidal activity, soil spray; assay type: in vivo; settings: Amaranthus retroflexus, pre-emergence, 504 h; Table 5; rate 560 ppm; visual score after 3 weeks; read-out: Pre-emergent % control AMARE
Procedure, shortened: (§2)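 Seeds sown in loam/sand (70:30) soil, pH ~8.1, ~1.5% organic matter; compounds in acetone/DMSO (97:3), diluted in water with 0.1% Tween 155, sprayed onto the soil surface before emergence. Pots kept in greenhouse, ~15 h photoperiod, about 23-29° C day/22-28° C night, top-irrigated.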

Row | Structure (SMILES) | pest or weed control at 560 ppm [%]
29 | COC(=O)c1nc(-c2cccc(Cl)c2)cc(N)c1Cl [Compound 27, Methyl 4-amino-3-chloro-6-(3-chlorophenyl)pyridine-2-carboxylate] | 100
30 | COC(=O)c1nc(-c2ccc(OC)cc2)cc(N)c1Cl [Compound 17, Methyl 4-amino-3-chloro-6-(4-methoxyphenyl)pyridine-2-carboxylate] | 100
31 | Nc1c(F)c(-c2ccc3c(c2)CCO3)nc(C(=O)O)c1Cl [Compound 197, 4-Amino-3-chloro-5-fluoro-6-(2,3-dihydro-5-benzofuranyl)pyridine-2-carboxylic acid] | 100
32 | COC(=O)c1nc(-c2ccc(Cl)cc2)cc(N)c1Cl [Compound 19, Methyl 4-amino-3-chloro-6-(4-chlorophenyl)pyridine-2-carboxylate] | 100
33 | COC(=O)c1nc(-c2ccc3c(c2)OCO3)c(F)c(N)c1Cl [Compound 84, Methyl 4-amino-3-chloro-5-fluoro-6-(3,4-methylenedioxyphenyl)pyridine-2-carboxylate] | 100

tested on: Giant Foxtail (Setaria faberi); assay: Preemergence herbicidal activity, soil spray; assay type: in vivo; settings: Setaria faberi, pre-emergence, 504 h, Table 5; rate 560 ppm; visual score after 3 weeks; read-out: Pre-emergent % control SETFA
Procedure, shortened: as §2

Row | Structure (SMILES) | pest or weed control at 560 ppm [%]
34 | COC(=O)c1nc(-c2cccc(Cl)c2)cc(N)c1Cl [Compound 27, Methyl 4-amino-3-chloro-6-(3-chlorophenyl)pyridine-2-carboxylate] | 100
35 | COC(=O)c1nc(-c2ccc(OC)cc2)cc(N)c1Cl [Compound 17, Methyl 4-amino-3-chloro-6-(4-methoxyphenyl)pyridine-2-carboxylate] | 100
36 | Nc1c(F)c(-c2ccc3c(c2)CCO3)nc(C(=O)O)c1Cl [Compound 197, 4-Amino-3-chloro-5-fluoro-6-(2,3-dihydro-5-benzofuranyl)pyridine-2-carboxylic acid] | 100
37 | COC(=O)c1nc(-c2ccc(Cl)cc2)cc(N)c1Cl [Compound 19, Methyl 4-amino-3-chloro-6-(4-chlorophenyl)pyridine-2-carboxylate] | 100
38 | COC(=O)c1nc(-c2ccc3c(c2)OCO3)c(F)c(N)c1Cl [Compound 84, Methyl 4-amino-3-chloro-5-fluoro-6-(3,4-methylenedioxyphenyl)pyridine-2-carboxylate] | 100

tested on: Crabgrass(large) (Digitaria sanguinalis); assay: Preemergence herbicidal activity, soil spray; assay type: in vivo; settings: Digitaria sanguinalis, pre-emergence, 504 h; Table 5; rate 560 ppm; visual score after 3 weeks; read-out: Pre-emergent % control DIGSA
Procedure, shortened: as §2

Row | Structure (SMILES) | pest or weed control at 560 ppm [%]
39 | COC(=O)c1nc(-c2cccc(Cl)c2)cc(N)c1Cl [Compound 27, Methyl 4-amino-3-chloro-6-(3-chlorophenyl)pyridine-2-carboxylate] | 100
40 | COC(=O)c1nc(-c2ccc(OC)cc2)cc(N)c1Cl [Compound 17, Methyl 4-amino-3-chloro-6-(4-methoxyphenyl)pyridine-2-carboxylate] | 100
41 | Nc1c(F)c(-c2ccc3c(c2)CCO3)nc(C(=O)O)c1Cl [Compound 197, 4-Amino-3-chloro-5-fluoro-6-(2,3-dihydro-5-benzofuranyl)pyridine-2-carboxylic acid] | 100
42 | COC(=O)c1nc(-c2ccc(Cl)cc2)cc(N)c1Cl [Compound 19, Methyl 4-amino-3-chloro-6-(4-chlorophenyl)pyridine-2-carboxylate] | 100
43 | COC(=O)c1nc(-c2ccc3c(c2)OCO3)c(F)c(N)c1Cl [Compound 84, Methyl 4-amino-3-chloro-5-fluoro-6-(3,4-methylenedioxyphenyl)pyridine-2-carboxylate] | 100

tested on: Lambsquarter (Chenopodium album); assay: Preemergence herbicidal activity, soil spray; assay type: in vivo; settings: Chenopodium album, pre-emergence, 504 h; Table 5; rate 560 ppm; visual score after 3 weeks, 100 complete kill or no germination; read-out: Pre-emergent % control CHEAL
Procedure, shortened: as §2

Row | Structure (SMILES) | pest or weed control at 560 ppm [%]
44 | COC(=O)c1nc(-c2cccc(Cl)c2)cc(N)c1Cl [Compound 27, Methyl 4-amino-3-chloro-6-(3-chlorophenyl)pyridine-2-carboxylate] | 100
45 | COC(=O)c1nc(-c2ccc(OC)cc2)cc(N)c1Cl [Compound 17, Methyl 4-amino-3-chloro-6-(4-methoxyphenyl)pyridine-2-carboxylate] | 100
46 | Nc1c(F)c(-c2ccc3c(c2)CCO3)nc(C(=O)O)c1Cl [Compound 197, 4-Amino-3-chloro-5-fluoro-6-(2,3-dihydro-5-benzofuranyl)pyridine-2-carboxylic acid] | 100
47 | COC(=O)c1nc(-c2ccc(Cl)cc2)cc(N)c1Cl [Compound 19, Methyl 4-amino-3-chloro-6-(4-chlorophenyl)pyridine-2-carboxylate] | 100
48 | COC(=O)c1nc(-c2ccc3c(c2)OCO3)c(F)c(N)c1Cl [Compound 84, Methyl 4-amino-3-chloro-5-fluoro-6-(3,4-methylenedioxyphenyl)pyridine-2-carboxylate] | 100

tested on: not given; assay: not given; settings: not given

Row | Structure (SMILES) | melting point [°C]
49 | COC(=O)c1nc(-c2cccc(Cl)c2)cc(N)c1Cl [Compound 27, Methyl 4-amino-3-chloro-6-(3-chlorophenyl)pyridine-2-carboxylate] | 141
50 | COC(=O)c1nc(-c2ccc(OC)cc2)cc(N)c1Cl [Compound 17, Methyl 4-amino-3-chloro-6-(4-methoxyphenyl)pyridine-2-carboxylate] | 148 to 149
51 | COC(=O)c1nc(-c2ccc(Cl)cc2)cc(N)c1Cl [Compound 19, Methyl 4-amino-3-chloro-6-(4-chlorophenyl)pyridine-2-carboxylate] | 132

Now from value to molecule:

Row | melting point [°C] | Structure (SMILES)
52 | 171 | Nc1c(F)c(-c2ccc3c(c2)CCO3)nc(C(=O)O)c1Cl [Compound 197, 4-Amino-3-chloro-5-fluoro-6-(2,3-dihydro-5-benzofuranyl)pyridine-2-carboxylic acid]
53 | 160 | COC(=O)c1nc(-c2ccc3c(c2)OCO3)c(F)c(N)c1Cl [Compound 84, Methyl 4-amino-3-chloro-5-fluoro-6-(3,4-methylenedioxyphenyl)pyridine-2-carboxylate]
